Reference: patent US20020183256A1, “Cytostatic-integrin conjugates having specifically cleavable linking units” (priority 2000, published 2002)
Like-named read-outs stand apart in the source and are kept apart here. *1 amine or outer side, *2 acyl side, *3 side chain or, on linkers, in order; H or OH if unused. Where a SMILES comes first, the peptide text is derived from it. [ ]: non-standard residue; d: D form. The star is where a group is joined. ξ: configuration not given here. Camptothecin(20R,20-O) = CC[C@]1(O*)C(=O)OCc2c1cc1n(c2=O)Cc2cc3ccccc3nc2-1; X2 = CCCNC(=O)Nc1cccc(S(=O)(=O)Nc2cccc(C(CC(=O)O)NC(=O)Nc3ccc(N*)cc3)c2)c1; X1 = CCCNC(=O)Nc1cccc(S(=O)(=O)Nc2cccc(C(CC(=O)O)N*)c2)c1; NH(1,4-C6H4)NHCS = S=C(Nc1ccc(N[*:1])cc1)[*:2]; ξH = NC(Cc1c[nH]cn1)C(=O)O; CO = O=C([*:1])[*:2]

What was measured:
αvβ3 receptor = target: T1, αvβ3 receptor (Homo sapiens, UniProt P05106+P06756); assay: αvβ3 binding test (echistatin displacement, WGA SPA beads); settings: IC50 values of the binding to the αvβ3 receptor, αvβ3 from human A375 cells
T1 construct: αvβ3 from human A375 cells was purified; endogenous in cells; host or cells: human A375 cells (receptor purified from the cells, analogous to Wong et al. 1996)
T1 sequence (P06756 31-889 limits assumed): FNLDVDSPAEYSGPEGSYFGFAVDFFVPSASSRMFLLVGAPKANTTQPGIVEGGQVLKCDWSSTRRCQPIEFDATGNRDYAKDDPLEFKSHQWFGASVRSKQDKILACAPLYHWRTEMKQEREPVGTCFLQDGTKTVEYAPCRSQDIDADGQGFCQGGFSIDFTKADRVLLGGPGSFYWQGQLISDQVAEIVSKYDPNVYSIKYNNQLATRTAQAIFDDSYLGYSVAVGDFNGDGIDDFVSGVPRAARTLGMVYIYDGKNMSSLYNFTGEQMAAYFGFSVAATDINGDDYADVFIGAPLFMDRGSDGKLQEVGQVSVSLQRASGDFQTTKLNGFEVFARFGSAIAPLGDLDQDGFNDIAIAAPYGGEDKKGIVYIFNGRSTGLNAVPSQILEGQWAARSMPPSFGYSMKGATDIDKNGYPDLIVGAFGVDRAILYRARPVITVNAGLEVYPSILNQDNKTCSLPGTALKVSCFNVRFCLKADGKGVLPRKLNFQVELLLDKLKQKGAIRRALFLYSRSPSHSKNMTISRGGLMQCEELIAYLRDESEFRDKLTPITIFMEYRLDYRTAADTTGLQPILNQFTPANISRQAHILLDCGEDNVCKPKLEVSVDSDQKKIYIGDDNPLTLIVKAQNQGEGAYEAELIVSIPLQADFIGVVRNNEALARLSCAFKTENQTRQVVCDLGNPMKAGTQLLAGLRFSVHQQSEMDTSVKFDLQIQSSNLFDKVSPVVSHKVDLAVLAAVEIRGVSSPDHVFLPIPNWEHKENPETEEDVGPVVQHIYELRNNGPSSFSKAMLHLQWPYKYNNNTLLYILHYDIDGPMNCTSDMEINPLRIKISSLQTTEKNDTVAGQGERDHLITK
T1 sequence (P06756 891-1048 partner limits assumed): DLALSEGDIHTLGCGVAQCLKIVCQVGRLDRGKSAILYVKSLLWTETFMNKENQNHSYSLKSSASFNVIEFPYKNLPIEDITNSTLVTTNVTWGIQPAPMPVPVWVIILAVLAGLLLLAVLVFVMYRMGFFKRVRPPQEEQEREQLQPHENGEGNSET
T1 sequence (P05106 27-788): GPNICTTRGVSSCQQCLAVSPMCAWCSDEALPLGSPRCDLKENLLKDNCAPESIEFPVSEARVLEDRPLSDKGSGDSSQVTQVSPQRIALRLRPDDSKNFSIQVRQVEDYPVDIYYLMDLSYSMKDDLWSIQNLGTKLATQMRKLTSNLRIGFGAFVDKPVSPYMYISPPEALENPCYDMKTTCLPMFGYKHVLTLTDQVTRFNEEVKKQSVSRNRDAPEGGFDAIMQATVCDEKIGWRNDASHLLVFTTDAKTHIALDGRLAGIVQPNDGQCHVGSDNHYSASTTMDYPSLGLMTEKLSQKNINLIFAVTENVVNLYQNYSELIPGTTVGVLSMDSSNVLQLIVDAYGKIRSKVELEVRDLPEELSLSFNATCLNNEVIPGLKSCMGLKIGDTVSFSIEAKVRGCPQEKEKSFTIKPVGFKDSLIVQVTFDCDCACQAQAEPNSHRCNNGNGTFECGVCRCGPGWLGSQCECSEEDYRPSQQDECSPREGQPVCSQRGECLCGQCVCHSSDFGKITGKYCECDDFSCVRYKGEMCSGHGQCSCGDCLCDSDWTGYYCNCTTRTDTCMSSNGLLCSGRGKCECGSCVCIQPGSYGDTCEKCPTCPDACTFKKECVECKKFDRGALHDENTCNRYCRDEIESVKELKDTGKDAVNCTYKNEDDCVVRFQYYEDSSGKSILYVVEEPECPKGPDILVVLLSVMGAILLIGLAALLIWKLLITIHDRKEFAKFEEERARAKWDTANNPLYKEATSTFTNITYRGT
Protocol: αvβ3 from human A375 cells was purified analogously to a procedure which was described by Wong et al. (Molecular Pharmacology, 50, 529-537 (1996)). In each case, 10 μl of αvβ3 (5 ng) in TBS pH 7.6, 2 mM CaCl2, 1 mM MgCl2, 1% n-octylglucopyranoside (Sigma); 10 μl of test substance in TBS pH 7.6, 0.1% DMSO and 45 μl of TBS pH 7.6, 2 mM CaCl2, 1 mM MgCl2, 1 mM MnCl2 were incubated at room temperature for 1 h. In each case, 25 μl of WGA SPA beads (Amersham, 4 mg/ml) and 10 μl of echistatin (0.1 μCi, Amersham, chloramine-T labelled) were then added. After 16 hours at room temperature, the samples were measured in a scintillation measuring apparatus (Wallac 1450).

SW 480 = assay: Growth inhibition test (MTT), cytotoxic action on tumour cell lines; format: cell-based, human
Protocol: (§1) The human large intestine cell lines SW 480 and HT29 (ATCC No. CCL 228 and HTB38 and the mouse melanoma cell line B16F10 (CRL 6475) were grown to confluence in Roux dishes in RPMI 1640 medium with addition of 10% FCS. They were then trypsinized and taken up in RPMI plus 10% FCS to a cell count of 50,000 cells or, for B16F10, 20,000 cells per ml. 100 μl of cell suspension/well were added to a 96 microwell plate and incubated at 37° C. for 1 day in a CO2 incubator. A further 100 μl of RPMI medium and 1 μl of DMSO were then added with the test substances. The growth was checked after day 6. For this, 25 μl of MTT solution (3-(4,5-dimethylthiazol-2-yl)-2,5-diphenyltetrazolium bromide) was added to each well at a starting concentration of 5 mg/ml of H2O. The plate was incubated at 37° C. for 5 hours in a CO2 incubator. The medium was then aspirated and 100 μl of i-propanol/well were added. After shaking with 100 μl of H2O for 30 min, the extinction was measured at 595 nm using a Multiplate Reader (BIO-RAD) 3550-UV).
(§2) The cytostatic action is indicated in Table 2 as an IC50 value, in each case for the individual cell lines.

HT29 = assay: as above; format: cell-based, human
Protocol: as §1, §2

B16F10 = assay: as above; format: cell-based, mouse
Protocol: as §1, §2

[1] = SW480, MTT after day 6, read-out: IC50 values of the cytotoxic action on tumour cell lines, SW480
[2] = HT29, MTT after day 6, read-out: IC50 values of the cytotoxic action on tumour cell lines, HT29
[3] = B16F10, MTT after day 6, read-out: IC50 values of the cytotoxic action on tumour cell lines, B16F10

| SMILES | IC50 (αvβ3 receptor) [nM] | IC50 (SW 480; [1]) [nM] | IC50 (HT29; [2]) [nM] | IC50 (B16F10; [3]) [nM] | IC50 (SW 480; human, 6 day) [nM] | IC50 (HT29; human, 6 day) [nM] | IC50 (B16F10; mouse, 6 day) [nM] |
| --- | --- | --- | --- | --- | --- | --- | --- |
| CCCNC(=O)Nc1cccc(S(=O)(=O)Nc2cccc(C(CC(=O)O)NC(=O)Nc3ccc(NC(=O)N4CCC[C@@H]4C(=O)N[C@@H](CC(C)C)C(=O)NCC(=O)N[C@H](CC(C)C)C(=O)N[C@H](Cc4c[nH]c5ccccc45)C(=O)N[C@@H](C(=O)O[C@@]4(CC)C(=O)OCc5c4cc4n(c5=O)Cc5cc6ccccc6nc5-4)C(C)C)cc3)c2)c1 (stereo partly drawn) [Example 15] ({X2-CO}-[dP]LG[dL][dW][dV]-{Camptothecin(20R,20-O)}) | 500 | 1500 | 500 | 8000 |  |  |  |
| CCCNC(=O)Nc1cccc(S(=O)(=O)Nc2cccc(C(CC(=O)O)NC(=O)Nc3ccc(NC(=S)N4CCC[C@H]4C(=O)N[C@@H](CC(C)C)C(=O)NCC(=O)N[C@@H](CC(C)C)C(=O)NCC(=O)N[C@H](C(=O)O[C@]4(CC)C(=O)OCc5c4cc4n(c5=O)Cc5cc6ccccc6nc5-4)C(C)C)cc3)c2)c1 (stereo partly shown) [Example 37] |  | 500 | 300 |  |  |  |  |
| CCCNC(=O)Nc1cccc(S(=O)(=O)Nc2cccc(C(CC(=O)O)NC(=O)Nc3ccc(NC(=S)N4CCC[C@@H]4C(=O)NCC(=O)NCC(=O)N[C@H](CC(C)C)C(=O)N[C@H](CC(N)=O)C(=O)N[C@@H](C(=O)O[C@@]4(CC)C(=O)OCc5c4cc4n(c5=O)Cc5cc6ccccc6nc5-4)C(C)C)cc3)c2)c1 (stereo partly drawn) [Example 23] ({X1-CO}-[NH(1,4-C6H4)NHCS][dP]GG[dL][dN][dV]-{Camptothecin(20R,20-O)}) |  | 400 | 150 | 1500 |  |  |  |
| CCCNC(=O)Nc1cccc(S(=O)(=O)Nc2cccc(C(CC(=O)O)NC(=O)Nc3ccc(NC(=S)NCC(=O)N4CCC[C@@H]4C(=O)N[C@@H](CC(C)C)C(=O)NCC(=O)N[C@H](CC(C)C)C(=O)N[C@H](Cc4c[nH]cn4)C(=O)N[C@@H](C(=O)O[C@@]4(CC)C(=O)OCc5c4cc4n(c5=O)Cc5cc6ccccc6nc5-4)C(C)C)cc3)c2)c1 (single isomer, unassigned) [Example 29] |  | 100 | 80 | 400 |  |  |  |
| CCCNC(=O)Nc1cccc(S(=O)(=O)Nc2cccc(C(CC(=O)O)NC(=O)Nc3ccc(NC(=S)N4CCC[C@H]4C(=O)N[C@@H](CC(C)C)C(=O)NCC(=O)N[C@@H](CC(C)C)C(=O)N[C@H](C)C(=O)N[C@H](C(=O)O[C@]4(CC)C(=O)OCc5c4cc4n(c5=O)Cc5cc6ccccc6nc5-4)C(C)C)cc3)c2)c1 (stereo partly shown) [Example 31] |  | 300 | 250 |  |  |  |  |
| CCCNC(=O)Nc1cccc(S(=O)(=O)Nc2cccc(C(CC(=O)O)NC(=O)Nc3ccc(NC(=S)N4CCC[C@@H]4C(=O)N[C@@H](CC(C)C)C(=O)NCC(=O)N[C@H](CCC)C(=O)N[C@H](CC(N)=O)C(=O)N[C@@H](C(=O)O[C@@]4(CC)C(=O)OCc5c4cc4n(c5=O)Cc5cc6ccccc6nc5-4)C(C)C)cc3)c2)c1 (single isomer, unassigned) [Example 21] |  | 60 | 30 | 200 |  |  |  |
| CCCNC(=O)Nc1cccc(S(=O)(=O)Nc2cccc(C(CC(=O)O)NC(=O)Nc3ccc(NC(=S)N4CCC[C@H]4C(=O)N[C@@H](CC(C)C)C(=O)NCC(=O)N[C@@H](CC(C)C)C(=O)N[C@@H](CO)C(=O)N[C@H](C(=O)O[C@]4(CC)C(=O)OCc5c4cc4n(c5=O)Cc5cc6ccccc6nc5-4)C(C)C)cc3)c2)c1 (stereo partly shown) [Example 34] |  | 100 | 50 | 800 |  |  |  |
| CCCNC(=O)Nc1cccc(S(=O)(=O)Nc2cccc(C(CC(=O)O)NC(=O)Nc3ccc(NC(=S)N4CCC[C@H]4C(=O)N[C@@H](CC(C)C)C(=O)NCC(=O)N[C@@H](CC(C)C)C(=O)N4CCC[C@H]4C(=O)N[C@H](C(=O)O[C@]4(CC)C(=O)OCc5c4cc4n(c5=O)Cc5cc6ccccc6nc5-4)C(C)C)cc3)c2)c1 (stereo partly shown) [Example 38] |  | 200 | 150 | 1000 |  |  |  |
| CCCNC(=O)Nc1cccc(S(=O)(=O)Nc2cccc(C(CC(=O)O)NC(=O)Nc3ccc(NC(=S)N4CCC[C@H]4C(=O)N[C@@H](CC(C)C)C(=O)NCC(=O)N[C@@H](CC(C)C)C(=O)N[C@@H](Cc4ccccc4)C(=O)N[C@H](C(=O)O[C@]4(CC)C(=O)OCc5c4cc4n(c5=O)Cc5cc6ccccc6nc5-4)C(C)C)cc3)c2)c1 (stereo partly shown) [Example 33] |  | 400 | 300 | 1000 |  |  |  |
| CCCNC(=O)Nc1cccc(S(=O)(=O)Nc2cccc(C(CC(=O)O)NC(=O)Nc3ccc(NC(=S)N4CCC[C@@H]4C(=O)N4CCC[C@@H]4C(=O)N[C@@H](CC(C)C)C(=O)NCC(=O)N[C@H](CC(C)C)C(=O)N[C@H](CC(N)=O)C(=O)N[C@@H](C(=O)O[C@@]4(CC)C(=O)OCc5c4cc4n(c5=O)Cc5cc6ccccc6nc5-4)C(C)C)cc3)c2)c1 (single isomer, unassigned) [Example 28] |  | 30 | 30 | 250 |  |  |  |
| CCCNC(=O)Nc1cccc(S(=O)(=O)Nc2cccc(C(CC(=O)O)NC(=O)Nc3ccc(NC(=S)N4CCC[C@H]4C(=O)N[C@@H](CC(C)C)C(=O)NCC(=O)N[C@@H](CC(C)C)C(=O)N[C@H](C(=O)N[C@H](C(=O)O[C@]4(CC)C(=O)OCc5c4cc4n(c5=O)Cc5cc6ccccc6nc5-4)C(C)C)C(C)CC)cc3)c2)c1 (stereo partly shown) [Example 35] |  | 200 | 150 | 800 |  |  |  |
| CCCNC(=O)Nc1cccc(S(=O)(=O)Nc2cccc(C(CC(=O)O)NC(=O)Nc3ccc(NC(=S)N4CCC[C@H]4C(=O)N[C@@H](CC(C)C)C(=O)NCC(=O)N[C@@H](CC(C)C)C(=O)N[C@@H](C)C(=O)N[C@H](C(=O)O[C@]4(CC)C(=O)OCc5c4cc4n(c5=O)Cc5cc6ccccc6nc5-4)C(C)C)cc3)c2)c1 (stereo partly shown) [Example 30] |  | 500 | 400 |  |  |  |  |
| CCCNC(=O)Nc1cccc(S(=O)(=O)Nc2cccc(C(CC(=O)O)NC(=O)Nc3ccc(NC(=S)N4CCC[C@@H]4C(=O)N[C@@H](CC(C)C)C(=O)NCC(=O)N[C@H](Cc4c[nH]cn4)C(=O)N[C@@H](C(=O)O[C@@]4(CC)C(=O)OCc5c4cc4n(c5=O)Cc5cc6ccccc6nc5-4)C(C)C)cc3)c2)c1 (single isomer, unassigned) [Example 26] |  | 90 | 50 | 300 |  |  |  |
| CCCNC(=O)Nc1cccc(S(=O)(=O)Nc2cccc(C(CC(=O)O)NC(=O)Nc3ccc(NC(=S)N4CCC[C@@H]4C(=O)N[C@@H](CC(C)C)C(=O)NCC(=O)N[C@H](CC(C)C)C(=O)N[C@@H](C(=O)O[C@@]4(CC)C(=O)OCc5c4cc4n(c5=O)Cc5cc6ccccc6nc5-4)C(C)C)cc3)c2)c1 (single isomer, unassigned) [Example 27] |  | 200 | 150 | 800 |  |  |  |
| CCCNC(=O)Nc1cccc(S(=O)(=O)Nc2cccc(C(CC(=O)O)NC(=O)Nc3ccc(NC(=S)N4CCC[C@@H]4C(=O)NC(Cc4c[nH]cn4)C(=O)NCC(=O)N[C@H](CC(C)C)C(=O)N[C@H](CC(N)=O)C(=O)N[C@@H](C(=O)O[C@@]4(CC)C(=O)OCc5c4cc4n(c5=O)Cc5cc6ccccc6nc5-4)C(C)C)cc3)c2)c1 (stereo partly drawn) [Example 24] ({X1-CO}-[NH(1,4-C6H4)NHCS][dP][ξH]G[dL][dN][dV]-{Camptothecin(20R,20-O)}) |  | 400 | 150 | 900 |  |  |  |
| CCCNC(=O)Nc1cccc(S(=O)(=O)Nc2cccc(C(CC(=O)O)NC(=O)Nc3ccc(NC(=S)N4CCC[C@H]4C(=O)N[C@@H](CC(C)C)C(=O)NCC(=O)N[C@@H](CC(C)C)C(=O)N[C@H](C(=O)N[C@H](C(=O)O[C@]4(CC)C(=O)OCc5c4cc4n(c5=O)Cc5cc6ccccc6nc5-4)C(C)C)C(C)C)cc3)c2)c1 (stereo partly shown) [Example 32] |  | 120 | 100 | 200 |  |  |  |
| CCCCNC(=O)Nc1cccc(S(=O)(=O)Nc2cccc(C(CC(=O)O)NC(=O)Nc3ccc(NC(=S)NCC(=O)N4CCC[C@@H]4C(=O)N[C@@H](CC(C)C)C(=O)NCC(=O)N[C@H](CC(C)C)C(=O)N[C@H](CC(N)=O)C(=O)N[C@@H](C(=O)O[C@@]4(CC)C(=O)OCc5c4cc4n(c5=O)Cc5cc6ccccc6nc5-4)C(C)C)cc3)c2)c1 (single isomer, unassigned) [Example 22] |  | 30 | 15 | 90 |  |  |  |
| CCCNC(=O)Nc1cccc(S(=O)(=O)Nc2cccc(C(CC(=O)O)NC(=O)Nc3ccc(NC(=S)N4CCC[C@H]4C(=O)N[C@@H](CC(C)C)C(=O)NCC(=O)N[C@@H](CC(C)C)C(=O)N[C@@H](CCC(=O)O)C(=O)N[C@H](C(=O)O[C@]4(CC)C(=O)OCc5c4cc4n(c5=O)Cc5cc6ccccc6nc5-4)C(C)C)cc3)c2)c1 (stereo partly shown) [Example 36] |  |  |  |  | 150 | 100 | 300 |
